Earlier results as cited in US12168000B2, “Methods of treating pain” (Scilex Holding Company, priority 2020, dated 2024).

How the values were obtained:
[1] = upon oral administration
[2] = hydrophobic and highly permeable drug

- time for peak plasma concentrations [1]: approximately 3.0 hours
- class of the biopharmaceutics classification system [2]: class II
SMILES: Cc1ccc(-c2cc(C(F)(F)F)nn2-c2ccc(S(N)(=O)=O)cc2)cc1 [Celecoxib, 4-[5-(4-methylphenyl)-3-(trifluoromethyl)-1H-pyrazol-1-yl] benzenesulfonamide]
